Test results reported in patent publication US20240150293A1, “SPIROCYCLOHEXANE DERIVATIVES, PHARMACEUTICAL COMPOSITIONS CONTAINING THEM AND THEIR USES AS ANTI-APOPTOTIC INHIBITORS” (LES LABORATOIRES SERVIER, priority 2021, published 2024).
Like-named read-outs stand apart in the source and are kept apart here.

Assays:
[1] = system: H929 multiple myeloma tumor line; assay: In vitro cytotoxicity, MTT assay (Example B, Method A); type: cell-based; conditions: H929 cells, 48 hours exposure, read-out: C50
Method: The cytotoxicity studies were carried out on the H929 multiple myeloma tumor line.
The cells are distributed onto microplates and exposed to the test compounds for 48 hours. The cell viability is then quantified by a colorimetric assay, the Microculture Tetrazolium Assay (Carmichael et al, Cancer Res. 1987, 47, 939-942).
The results are expressed in C50 which means concentration corresponding to […] of effect/inhibition.

[2] = target: Cy5-labelled Mcl1 (amino acids 171-321) C286S protein (UniProtKB Q07820) (Homo sapiens (Human), UniProt Q07820, C286S); assay: Inhibition of Mcl-1 by the fluorescence quenching assay (Example A, Method B); type: binding
In short: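 Eleven-point compound series incubated 2 h at room temperature with 1 nM Cy5-tagged protein and quencher-labelled PUMA peptide at 10, 20 or 400 nM in HEPES/NaCl/Tween 20, pH 7.4, 5% DMSO. IC50 for 50% fluorescence increase by 4-parameter fit, then Ki derived (complete cKi or estimated eKi).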

Sequence of Cy5-labelled Mcl1 (amino acids 171-321) C286S protein (Q07820 171-321 C286S): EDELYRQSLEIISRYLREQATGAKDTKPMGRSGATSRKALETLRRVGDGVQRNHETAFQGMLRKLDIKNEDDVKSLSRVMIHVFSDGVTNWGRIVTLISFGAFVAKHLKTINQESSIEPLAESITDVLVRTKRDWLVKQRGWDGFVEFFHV

Ki [2] | SMILES | IC50 ([1]; Homo sapiens, NCI-H929, 48 h) | IC50 [1]
0.0126 µM | C[C@@H](COc1ccnc2c(Cl)cn(C)c12)C[C@H]1Cc2ccccc2[C@]12CC[C@@](Nc1cccc(Cl)c1)(C(=O)O)CC2 [Example 631, (1r,2′S,4S)-4-(3-chloroanilino)-2′-{(2R)-3-[(3-chloro-1-methyl-1H-pyrrolo[3,2-b]pyridin-7-yl)oxy]-2-methylpropyl}-2′,3′-dihydrospiro[cyclohexane-1,1′-indene]-4-carboxylic acid] | 3.17 µM | 
0.00385 µM | COCc1ccc2c(c1)[C@]1(CC[C@@](Nc3cccc(Cl)c3)(C(=O)O)CC1)[C@H](C[C@@H](C)COc1ccnc3c1[C@H](C)CCC3)C2 [Example 920, (1r,2′R,4R)-4-(3-chloroanilino)-6′-(methoxymethyl)-2′-[(2R)-2-methyl-3-{[(5R)-5-methyl-5,6,7,8-tetrahydroquinolin-4-yl]oxy}propyl]-2′,3′-dihydrospiro[cyclohexane-1,1′-indene]-4-carboxylic acid] | 0.104 µM | 
0.103 µM | CC[C@H]1CC[C@H](F)c2nccc(OC[C@H](C)C[C@H]3Cc4ccccc4[C@]34CC[C@@](Nc3cccc(Cl)c3)(C(=O)O)CC4)c21 [Example 696, (1r,2′S,4S)-4-(3-chloroanilino)-2′-[(2R)-3-{[(5S,8S)-5-ethyl-8-fluoro-5,6,7,8-tetrahydroquinolin-4-yl]oxy}-2-methylpropyl]-2′,3′-dihydrospiro[cyclohexane-1,1′-indene]-4-carboxylic acid] | 5.07 µM | 
0.000303 µM | Cc1cc(C(C)O)cc2c1C=C(C[C@@H](C)COc1ccnc3c1[C@H](C)CCC3)[C@]21CC[C@](Nc2cccc(Cl)c2)(C(=O)O)CC1 (single isomer, unassigned) [Example 759] |  | 0.185 µM
0.00035 µM | C[C@@H](COc1ccnc2c1[C@H](C)CC[C@H]2O)CC1=Cc2cc(F)ccc2[C@]12CC[C@@](Nc1cccc(Cl)c1)(C(=O)O)CC2 [Example 770, (1r,4R)-4-(3-chloroanilino)-5′-fluoro-2′-[(2R)-3-{[(5R,8R)-8-hydroxy-5-methyl-5,6,7,8-tetrahydroquinolin-4-yl]oxy}-2-methylpropyl]spiro[cyclohexane-1,1′-indene]-4-carboxylic acid] | 0.0906 µM | 
0.00695 µM | C[C@@H](COc1ccnc2c1[C@@H](C)CC[C@H]2O)C[C@H]1Cc2ccccc2[C@]12CC[C@@](Nc1cccc(Cl)c1)(C(=O)O)CC2 [Example 674, (1r,2′S,4S)-4-(3-chloroanilino)-2′-[(2R)-3-{[(5S,8R)-8-hydroxy-5-methyl-5,6,7,8-tetrahydroquinolin-4-yl]oxy}-2-methylpropyl]-2′,3′-dihydrospiro[cyclohexane-1,1′-indene]-4-carboxylic acid] | 1.71 µM | 
0.0104 µM | C[C@@H](COc1ccncc1C1CC1)C[C@H]1Cc2ccccc2[C@]12CC[C@@](Nc1cccc(Cl)c1)(C(=O)O)CC2 [Example 577, (1r,2′S,4S)-4-(3-chloroanilino)-2′-{(2R)-3-[(3-cyclopropylpyridin-4-yl)oxy]-2-methylpropyl}-2′,3′-dihydrospiro[cyclohexane-1,1′-indene]-4-carboxylic acid] | 1.19 µM | 
0.00828 µM | CC[C@@H]1CC[C@@H](F)c2nccc(OC[C@H](C)C[C@H]3Cc4ccccc4[C@]34CC[C@@](Nc3cccc(Cl)c3)(C(=O)O)CC4)c21 [Example 697, (1r,2′S,4S)-4-(3-chloroanilino)-2′-[(2R)-3-{[(5R,8R)-5-ethyl-8-fluoro-5,6,7,8-tetrahydroquinolin-4-yl]oxy}-2-methylpropyl]-2′,3′-dihydrospiro[cyclohexane-1,1′-indene]-4-carboxylic acid] | 0.374 µM | 
0.00261 µM | C[C@@H](COc1ccnc2c1CCC2O)C[C@H]1Cc2ccccc2[C@]12CC[C@@](Nc1cccc(Cl)c1)(C(=O)O)CC2 (single isomer, unassigned) [Example 609] |  | 0.629 µM
0.00228 µM | C[C@@H](COc1ccnc2c1[C@H](C)CCC2)C[C@@H]1Cc2cc(F)c(F)cc2[C@]12CC[C@@](Nc1cccc(Cl)c1)(C(=O)O)CC2 [Example 776, (1r,2′R,4R)-4-(3-chloroanilino)-5′,6′-difluoro-2′-[(2R)-2-methyl-3-{[(5R)-5-methyl-5,6,7,8-tetrahydroquinolin-4-yl]oxy}propyl]-2′,3′-dihydrospiro[cyclohexane-1,1′-indene]-4-carboxylic acid] | 0.227 µM | 
0.00142 µM | C[C@@H](COc1ccnc2c1[C@H](C)CCC2)CC1=Cc2cc(F)c(F)cc2[C@]12CC[C@@](Nc1cccc(Cl)c1)(C(=O)O)CC2 [Example 774, (1r,4R)-4-(3-chloroanilino)-5′,6′-difluoro-2′-[(2R)-2-methyl-3-{[(5R)-5-methyl-5,6,7,8-tetrahydroquinolin-4-yl]oxy}propyl]spiro[cyclohexane-1,1′-indene]-4-carboxylic acid] | 0.118 µM | 
0.00471 µM | C[C@@H](COc1ccnc2c1[C@H](C)CCC2)C[C@H]1Cc2ccccc2[C@]12CC[C@@](Nc1cccc(C#N)c1)(C(=O)O)CC2 [Example 716, (1r,2′S,4S)-4-(3-cyanoanilino)-2′-[(2R)-2-methyl-3-{[(5R)-5-methyl-5,6,7,8-tetrahydroquinolin-4-yl]oxy}propyl]-2′,3′-dihydrospiro[cyclohexane-1,1′-indene]-4-carboxylic acid] | 0.311 µM | 
0.0234 µM | O=C(O)[C@]1(Nc2cccc(Cl)c2)CC[C@]2(CC1)C(CC(F)COc1ccnc3c1CCCC3)=Cc1ccccc12 (single isomer, unassigned) [Example 505, (1r,4r)-4-(3-chloroanilino)-2′-{2-fluoro-3-[(5,6,7,8-tetrahydroquinolin-4-yl)oxy]propyl}spiro[cyclohexane-1,1′-indene]-4-carboxylic acid] | 2.38 µM | 
0.000593 µM | C[C@@H](COc1ccnc2c1[C@H](C)CCC2)CC1=Cc2ccccc2[C@]12CC[C@@](Nc1cccc(Cl)c1)(C(=O)O)CC2 [Example 646, (1r,4R)-4-(3-chloroanilino)-2′-[(2R)-2-methyl-3-{[(5R)-5-methyl-5,6,7,8-tetrahydroquinolin-4-yl]oxy}propyl]spiro[cyclohexane-1,1′-indene]-4-carboxylic acid] | 0.148 µM | 
0.00209 µM | C[C@@H](COc1ccnc2c1CCC[C@@H]2F)C[C@H]1Cc2ccccc2[C@]12CC[C@@](Nc1cccc(Cl)c1)(C(=O)O)CC2 [Example 680, (1r,2′S,4S)-4-(3-chloroanilino)-2′-[(2R)-3-{[(8S)-8-fluoro-5,6,7,8-tetrahydroquinolin-4-yl]oxy}-2-methylpropyl]-2′,3′-dihydrospiro[cyclohexane-1,1′-indene]-4-carboxylic acid] | 0.687 µM | 
0.00094 µM | Cc1cccc2c1CC(C[C@@H](C)COc1ccnc3c1[C@H](C)CCC3)[C@]21CC[C@](Nc2cccc(Cl)c2)(C(=O)O)CC1 (single isomer, unassigned) [Example 755] |  | 0.0584 µM
0.0277 µM | C[C@@H](COc1ccnc2c1[C@H](C)CCC2)C[C@H]1Cc2ccccc2[C@]12CC[C@@](Nc1cc(Cl)ccc1F)(C(=O)O)CC2 [Example 705, (1r,2′S,4S)-4-(5-chloro-2-fluoroanilino)-2′-[(2R)-2-methyl-3-{[(5R)-5-methyl-5,6,7,8-tetrahydroquinolin-4-yl]oxy}propyl]-2′,3′-dihydrospiro[cyclohexane-1,1′-indene]-4-carboxylic acid] | 2.75 µM | 
0.221 µM | CC[C@H]1CC[C@H](O)c2nccc(OC[C@H](C)C[C@H]3Cc4ccccc4[C@]34CC[C@@](Nc3cccc(Cl)c3)(C(=O)O)CC4)c21 [Example 678, (1r,2′S,4S)-4-(3-chloroanilino)-2′-[(2R)-3-{[(5S,8S)-5-ethyl-8-hydroxy-5,6,7,8-tetrahydroquinolin-4-yl]oxy}-2-methylpropyl]-2′,3′-dihydrospiro[cyclohexane-1,1′-indene]-4-carboxylic acid] | 9.63 µM | 
0.35 µM | C[C@@H](CNc1ccncc1)C[C@H]1Cc2ccccc2[C@]12CC[C@@](Nc1cccc(Cl)c1)(C(=O)O)CC2 [Example 575, (1r,2′S,4S)-4-(3-chloroanilino)-2′-{(2R)-2-methyl-3-[(pyridin-4-yl)amino]propyl}-2′,3′-dihydrospiro[cyclohexane-1,1′-indene]-4-carboxylic acid] | 16.2 µM | 
0.00117 µM | CC1CCc2nccc(OC[C@H](C)CC3=Cc4ccccc4[C@]34CC[C@@](Nc3cccc(Cl)c3)(C(=O)O)CC4)c21 (single isomer, unassigned) [Example 630] |  | 0.34 µM
0.0127 µM | C[C@@H](COc1ccnc2c1[C@H]1CCC[C@H]1C2)C[C@H]1Cc2ccccc2[C@]12CC[C@@](Nc1cccc(Cl)c1)(C(=O)O)CC2 (single isomer, unassigned) [Example 620, (1r,2′S,4S)-4-(3-chloroanilino)-2′-[(2R)-3-{[(4bR*,7aR*)-4b,5,6,7,7a,8-hexahydropentaleno[2,1-b]pyridin-4-yl]oxy}-2-methylpropyl]-2′,3′-dihydrospiro[cyclohexane-1,1′-indene]-4-carboxylic acid] |  | 0.889 µM
0.00162 µM | C[C@@H](COc1ccnc2c1CCC2O)C[C@H]1Cc2ccccc2[C@]12CC[C@@](Nc1cccc(Cl)c1)(C(=O)O)CC2 (single isomer, unassigned) [Example 608] | 0.792 µM | 
0.0231 µM | Cc1cc(OC[C@H](C)C[C@H]2Cc3ccccc3[C@]23CC[C@@](Nc2cccc(Cl)c2)(C(=O)O)CC3)c2c(n1)CCCC2C (single isomer, unassigned) [Example 663] |  | 3.43 µM
